Data published in patent US20150272970A1, “TARGETING CHEMOTHERAPY AGENT RESISTANCE IN CANCER” (priority 2012, published 2015).
Entries after “also recorded” stand apart in the source; their conditions may differ.

Assays:
[1] = tested on: CK19/GFP-negative cells; experiment: Apoptotic response by Caspase-3 and PARP cleavage immunoblot; type: cell-based, human; conditions: LY294002 50 μM, ABT-737 10 μM, 72 hours
Method: (§1) Whole cell extracts were prepared in sample buffer and analyzed by immunoblotting. Primary antibodies against poly (ADP-ribose) polymerase (PARP) (BD Pharmingen), cleaved caspase-3 (Cell Signaling), cytokeratin 19 (CK19) (Abcam), cytokeratin 18 (CK18) (Abcam), androgen receptor (AR) (Sigma-Aldrich), prostate specific membrane antigen (PSMA) (Abcam), prostate specific antigen (PSA) (Epitomics), cytokeratin 5 (CK5) (Covance), cytokeratin 14 (CK14) (Biogenex), p63 (Santa Cruz), CD44 (Neomarkers), activated Notch2 (Abcam), Hes1 (Abcam), Patched (Abcam), Gli1 (Santa Cruz), Gli2 (Abcam), pan-HLA class I (Abcam), and AKT (Cell Signaling), phospho-AKT Ser 473 (Cell Signaling), Bcl-2 (Cell Signaling), ABCB1/P-Glycoprotein (Calbiochem), Green fluorescent protein (Santa Cruz), and β-Actin (Sigma-Aldrich) were used in immunoblot assays using standard procedures. Protein expression was quantified by comparing band expression using Quantity One software (Bio-Rad).
(§2) Cells were exposed to vehicle solution (Control), LY294002 (50 μM), and ABT-737 (10 μM) for 72 hours, alone or in combination.

[2] = tested on: DU145-pCK19-GFP and 22Rv1-pCK19-GFP sorted cells; experiment: Colony formation assay of GFP-sorted cells; type: cell-based, human; conditions: 72 hours; for colony formation of CK19/GFP-negative cells with PI3K/AKT and Bcl-2 inhibition: LY294002 50 μM, ABT-737 10 μM; for colony formation of CK19/GFP-negative cells / colony formation of CK19/GFP-positive cells: Mitoxantrone 125/500 nM, Cisplatin 5/2.5 μM, Vinorelbine 500/750 nM (DU145/22Rv1)
Method: as §2

[3] = tested on: p-AKT (Ser473); experiment: Immunoblot of AKT phosphorylation; type: cell-based, human; conditions: 1 μM, 72 hours, CK19/GFP-negative cells
Method: as §1

[4] = tested on: Notch and Hedgehog pathway target genes; experiment: Quantitative RT-PCR of Notch and Hedgehog pathway target genes in cells; type: cell-based, human; conditions: 1 μM, 72 hours, DU145-pCK19-GFP and 22Rv1-pCK19-GFP cells
Method: Total RNA was isolated using the RNeasy Mini kit according to the manufacturer's instructions (Qiagen). Complementary DNA was synthesized from equivalent concentrations of total RNA using the SuperScript III First-Strand Synthesis SuperMix Kit (Invitrogen) according to the manufacturer's instructions. Coding sequences for genes of interest and β-Actin as an internal control were amplified from 500 ng of complementary DNA using the QuantiTect SYBR Green PCR Kit (Qiagen).
Amplification was carried out using a Stratagene mx3005p (Agilent Technologies). Cycle threshold (Ct) values were determined and normalized to the housekeeping gene (β-actin) for each experiment. Fold changes for experimental groups relative to respective controls were calculated using MX Pro software (Agilent Technologies). Quantitative RT-PCR was performed in DU145-pCK19-GFP and 22Rv1-pCK19-GFP cells as well as in cells obtained from mice bearing DU145 and 22Rv1 tumor xenografts treated for 21 days with Docetaxel, and Hedgehog and Notch inhibitors, alone or in combination. Quantitative RT-PCR was performed in tumor xenografts removed 4 hours after the last drug dose was administered.

[5] = tested on: Bcl-2; experiment: Immunoblot of Bcl-2 expression; type: cell-based, human; conditions: 1 μM, 72 hours, CK19/GFP-negative cells
Method: Whole cell extracts were prepared in sample buffer and analyzed by immunoblotting. […] Protein expression was quantified by comparing band expression using Quantity One software (Bio-Rad).

[6] = tested on: DU145-pCK19-GFP and 22Rv1-pCK19-GFP cells; experiment: Immunoblots of Docetaxel-resistance markers in unsorted cells; type: cell-based, human; conditions: Docetaxel 72 hours (10 nM DU145, 50 nM 22Rv1)
Method: as §1

[7] = tested on: 22Rv1-pCK19-GFP cells; experiment: Flow cytometry of viable CK19/GFP populations after Docetaxel; type: cell-based, human; conditions: 50 nM Docetaxel
Method: (§3) Flow cytometry analysis of subpopulations of prostate cancer cells were carried out following standard procedures. Intracellular CK19 and CK18 expression analysis was performed in single-cell suspensions fixed with 70% ethanol, whereas the expression of cell surface HLA class I was determined in fresh cell samples (without fixation). Primary antibodies against CK19 (Abcam), CK18 (Abcam), HLA class I (Abcam), HLA class I conjugated to phycoerythrin (Abcam), and GFP (Abcam) were used. […] Samples were acquired with a FACscan Flow Cytometer (BD Biosciences) and analyzed with CellQuest Pro software (BD Biosciences). A minimum of 10,000 cells were measured per sample.

[8] = tested on: DU145-pCK19-GFP cells; experiment: as above; type: cell-based, human; conditions: 10 nM Docetaxel for 72 h
Method: as §3

[9] = tested on: DU145-pCK19-GFP and 22Rv1-pCK19-GFP cells; experiment: Live cell imaging (time-lapse) in presence of Docetaxel; type: cell-based, human; conditions: in the presence of Docetaxel
Method: Time-lapse videomicroscopy was used to assess Docetaxel sensitivity of DU145-pCK19-GFP and 22Rv1-pCK19-GFP cells. Cells growing in 6-well plates at low confluence were placed in the stage inside an incubator chamber at 37° C., 50% humidity, and in an atmosphere of 5% CO2. Unattended time-lapse movies of randomly chosen GFP+ and GFP− DU145 and 22Rv1 cells were performed with a Nikon Eclipse Ti inverted microscope. NIS Elements AR (Nikon) software was used to collect and process data. Imaging was performed using a 10× objective, and images were captured using 200-ms exposure times for GFP and 20-ms exposure times for bright field every 30 min.

[10] = tested on: DU145 and 22Rv1 xenografts; experiment: Percentage of CK-negative cells in tumor xenografts; type: in vivo, NOD/SCID mice; conditions: treated for 4 weeks
Method: Immunofluorescence analyses were conducted on prostate cancer cell lines and formalin fixed paraffin-embedded tissue sections from normal human prostate, human cancers, and tumor xenografts. Primary antibodies included a combination of cytokeratin 19 and 18 (Abcam), green fluorescence protein (Abcam), cytokeratin 5 (Covance), cytokeratin 14 (Biogenex), p63 (Santa Cruz), pan-HLA class I (Abcam), Ki67 (Abcam) and the following transcription factors: activated Notch2 (Abcam), Gli1 (Santa Cruz), Gli2 (Abcam) and androgen receptor (DAKO). […] Prostate cancer cells (10,000) were plated in 35 mm culture dishes and 24 hours later stained by standard immunofluorescence procedures. Tissue sections (5 μm) were deparaffinized and submitted to standard peroxidase based immunohistochemistry and immunofluorescence procedures. Quantification of the expression of cytokeratins, HLA class I antigens, transcription factors, and androgen receptor was performed by evaluating tumor cells. Percentage of positive and negative cells was determined by counting the number of tumor cells in 10 contiguous high power fields in three different areas of the tumor, and referred to the total number of counted cancer cells.

## CN(C)CC[C@H](CSc1ccccc1)Nc1ccc(S(=O)(=O)NC(=O)c2ccc(N3CCN(Cc4ccccc4-c4ccc(Cl)cc4)CC3)cc2)cc1[N+](=O)[O-] [ABT-737]
[1]
  apoptosis (PARP and Caspase-3 cleavage) with PI3K/AKT and Bcl-2 inhibition: not individual
[2]
  colony formation of CK19/GFP-negative cells with PI3K/AKT and Bcl-2 inhibition: not individual

## N.N.[Cl][Pt][Cl] [Cisplatin]
[2]
  colony formation of CK19/GFP-negative cells: formed colonies
  colony formation of CK19/GFP-positive cells: failed to do so

## C[C@H](NC(=O)Cc1cc(F)cc(F)c1)C(=O)N[C@H]1N=C(c2ccccc2)c2ccccc2N(C)C1=O [Compound E]
[3]; listed as CE
  p-AKT (Ser473) level: significantly reduced; also recorded: specifically decreases
[4]
  targeting of respective pathway (mRNA of pathway target genes): targeting their respective pathways

## CC1=C2C[C@H]3[C@@H](CC=C4C[C@@H](O)CC[C@@]43C)[C@@H]2CC[C@]12O[C@@H]1C[C@H](C)CN[C@H]1[C@H]2C [Cyclopamine]
[5]
  Bcl-2 expression level: significantly reduced; also recorded: reduces
[4]
  targeting of respective pathway (mRNA of pathway target genes): targeting their respective pathways

## C[C@H](NC(=O)Cc1cc(F)cc(F)c1)C(=O)NC1C(=O)N(C)c2ccccc2-c2ccccc21 (stereo partly drawn) [DBZ, (2S)-2-[2-(3,5-difluorophenyl)-acetylamino]-N-(5-methyl-6-oxo-6,7-dihydro-5H-dibenzo[b,-d]azepin-7-yl)-propionamide]
[3]
  p-AKT (Ser473) level: significantly reduced; also recorded: decreases
[4]
  targeting of respective pathway (mRNA of pathway target genes): targeting their respective pathways

## CC(=O)O[C@@]12CO[C@@H]1C[C@H](O)[C@@]1(C)C(=O)[C@H](O)C3=C(C)[C@@H](OC(=O)[C@H](O)[C@@H](NC(=O)OC(C)(C)C)c4ccccc4)C[C@@](O)([C@@H](OC(=O)c4ccccc4)[C@H]21)C3(C)C [Docetaxel]
[6]
  differentiation markers and developmental signaling pathways: expected reduction in differentiation markers and increase in developmental signaling pathways
[7]; 8.5±3.5% before treatment
  viable 22Rv1-pCK19-GFP-negative cells: 78.6±4.1%
[7]; 85.0±2.0% before treatment
  viable CK19/GFP-positive cells: 19.3±3.4%
[8]; 4.4±4.3% before treatment
  viable CK19/GFP-negative population: 73.1±10.2%
[8]; 87.5±10.4% before treatment
  viable CK19/GFP-positive population: 28.3±10.6%
[9]
  behavior of CK19/GFP-negative cells under therapy: able to divide and exit mitosis
  behavior of CK19/GFP-positive cells under therapy: died after mitotic arrest
[10]
  CK-negative cells in xenografts: enriched for CK-negative cells
[2]; Docetaxel 10 nM (DU145) and 50 nM (22Rv1)
  colony formation after exposure to Docetaxel: only CK19/GFP-negative cells formed colonies

## CS(=O)(=O)c1ccc(C(=O)Nc2ccc(Cl)c(-c3ccccn3)c2)c(Cl)c1 [GDC-0449, Vismodegib]
[5]
  Bcl-2 expression level: significantly reduced; also recorded: reduces
[4]
  targeting of respective pathway (mRNA of pathway target genes): targeting their respective pathways

## Cl.O=c1cc(N2CCOCC2)oc2c(-c3ccccc3)cccc12 [LY294002, 2-(4-Morpholinyl)-8-phenyl-1(4H)-benzopyran-4-one hydrochloride]
[1]
  apoptosis (PARP and Caspase-3 cleavage) with PI3K/AKT and Bcl-2 inhibition: not individual
[2]
  colony formation of CK19/GFP-negative cells with PI3K/AKT and Bcl-2 inhibition: not individual

## O=C1c2c(O)ccc(O)c2C(=O)c2c(NCCNCCO)ccc(NCCNCCO)c21 [Mitoxantrone]
[2]
  colony formation of CK19/GFP-negative cells: formed colonies
  colony formation of CK19/GFP-positive cells: failed to do so

## CCC1=C[C@@H]2CN(C1)Cc1c([nH]c3ccccc13)[C@@](C(=O)OC)(c1cc3c(cc1OC)N(C)[C@H]1[C@@](O)(C(=O)OC)[C@H](OC(C)=O)[C@]4(CC)C=CCN5CC[C@]31[C@@H]54)C2 [Vinorelbine]
[2]
  colony formation of CK19/GFP-negative cells: formed colonies
  colony formation of CK19/GFP-positive cells: failed to do so
